pIC50, pKd: −log10 of the molar value.
How the values were obtained:
ϕDI Dut-Stl complex [1] = target: T1, ϕDI Dut-Stl complex (Staphylococcus aureus, UniProt A0A2D0TC87); test: Native-PAGE, disruption of Dut-Stl complex; assay type: binding; conditions: equimolar Dut and Stl; dUMP up to 1 mM
T1 construct: His-tagged Dut and purified Stl, E. coli; 1:1 molar ratio of Dut and Stl; with SaPIbov1 master repressor Stl (Staphylococcus aureus pathogenicity island SaPIbov1)

ϕDI Dut-Stl complex [2] = target: T1, ϕDI Dut-Stl complex; test: Native-PAGE, disruption of Dut-Stl complex; conditions: equimolar Dut and Stl (17 μM); 4°C electrophoresis; competes with Stl binding to Dut
Excerpt: Native-PAGE, disruption of Dut-Stl complex on ϕDI Dut-Stl complex | competing away the dimeric ϕDI Dut from binding to the SaPI Stl repressor, with an IC50

[3] = target: T2, ϕDI Dut (dimeric dUTPase) (Staphylococcus aureus, UniProt A0A2D0TC87); test: X-ray crystallography, […] Å; assay type: binding; conditions: Mg2+; active site, two Mg2+ per nucleotide
T2 construct: His-tagged, pET-28a, E. coli BL21(DE3); homodimer; eight helices, residues 7-163 in helices

[4] = target: T2, ϕDI Dut (dimeric dUTPase); test: isothermal titration calorimetry; assay type: binding; conditions: 50 mM HEPES pH 7.5, 250 mM NaCl, 5 mM MgCl2, 25°C; single-site model; read-out: dissociation constant
Excerpt: isothermal titration calorimetry on ϕDI Dut (dimeric dUTPase) | used to calculate the dissociation constant of ϕDI and ϕDI^A73L Duts against dUPNPP

[5] = test system: T3, ϕDII Dut (dimeric dUTPase); test: Malachite Green phosphate assay; assay type: biochemical, Staphylococcus phage phiDII; conditions: 3-400 μM dUTP; 25°C; free Dut, no Stl; decimal comma (11.1)
T3 construct: His-tagged, pET-28a, E. coli BL21(DE3)
Excerpt: Malachite Green phosphate assay on ϕDII Dut (dimeric dUTPase)

[6] = test system: T4, ϕO11 Dut (dimeric dUTPase); test: Malachite Green phosphate assay; assay type: biochemical, Staphylococcus phage phiO11; conditions: 3-400 μM dUTP; 25°C; free Dut, no Stl; decimal comma (17.4)
T4 construct: His-tagged, pET-28a, E. coli BL21(DE3); not the trimeric Dut of phage ϕ11
Excerpt: Malachite Green phosphate assay on ϕO11 Dut (dimeric dUTPase)

[7] = test system: T5, ϕNM1 Dut (dimeric dUTPase); test: Malachite Green phosphate assay; assay type: biochemical, Staphylococcus phage phiNM1; conditions: 3-400 μM dUTP; 25°C; free Dut, no Stl; decimal comma (17.5)
T5 construct: His-tagged, pET-28a, E. coli BL21(DE3)
Excerpt: Malachite Green phosphate assay on ϕNM1 Dut (dimeric dUTPase)

[8] = test system: T6, ϕ55 Dut (dimeric dUTPase); test: Malachite Green phosphate assay; assay type: biochemical, Staphylococcus phage 55; conditions: 3-400 μM dUTP; 25°C; free Dut, no Stl; decimal comma (13.6)
T6 construct: His-tagged, pET-28a, E. coli BL21(DE3)
Excerpt: Malachite Green phosphate assay on ϕ55 Dut (dimeric dUTPase)

[9] = target: SaPIbov1-encoded Stl repressor (Staphylococcus aureus (pathogenicity island SaPIbov1)); test: native gel or EMSA

## O=c1ccn([C@H]2C[C@H](O)[C@@H](COP(=O)(O)O)O2)c(=O)[nH]1 [dUMP]
ϕDI Dut-Stl complex [1]
  Native-PAGE, disruption of Dut-Stl complex: only a weak reduction in ϕDI Dut-Stl binding was observed

## O=c1ccn([C@H]2C[C@H](O)[C@@H](COP(=O)(O)NP(=O)(O)OP(=O)(O)O)O2)c(=O)[nH]1 [dUPNPP, 2-Deoxyuridine-5-[(α,β)-imido]triphosphate]
ϕDI Dut-Stl complex [2]
  pIC50: 4.86
[3]
  X-ray crystallography, 2.1 Å: structure of the ϕDI Dut in complex with dUPNPP
[4]
  pKd: 5.31

## O=c1ccn([C@H]2C[C@H](O)[C@@H](COP(=O)(O)OP(=O)(O)OP(=O)(O)O)O2)c(=O)[nH]1 [dUTP]
[5]
  Km: 11.1 µM
[6]
  Km: 17.4 µM
[7]
  Km: 17.5 µM
[8]
  Km: 13.6 µM

## dimeric dUTPase (Dut) from S. aureus phage ϕDI (enzyme)
[9]
  stoichiometry N (Dut:Stl molar ratio): 1

## dimeric dUTPase (Dut) from S. aureus phage ϕO11 (enzyme)
[9]
  stoichiometry N (Dut:Stl molar ratio): 1
